Laboratory results: patent US4278686A, “Carbapenum derivatives, a process for their preparation and their use in pharmaceutical compositions and intermediates” (Beecham Group Limited, priority 1978, dated 1981)

Key:
Assay type in all cases: cell-based
E. coli 0111 = experiment: standard MIC test, E. coli 0111 (DST agar+5% horse blood); details: Escherichia coli
Proteus rettgeri WM 16 = experiment: standard MIC test, Proteus rettgeri WM 16 (DST agar+5% horse blood); details: Providencia rettgeri, WM16
Strep. faecalis I = experiment: standard MIC test, Strep. faecalis I (DST agar+5% horse blood); details: Enterococcus faecalis
Klebsiella aerogenes A = experiment: standard MIC test, Klebsiella aerogenes A (DST agar+5% horse blood)
Staph. aureus 1517 = experiment: standard MIC test, Staph. aureus 1517 (DST agar+5% horse blood); details: Staphylococcus aureus
Serratia marcescens US20 = experiment: standard MIC test, Serratia marcescens US20 (DST agar+5% horse blood)
Shigella sonnei MB 11967 = experiment: standard MIC test, Shigella sonnei MB 11967 (DST agar+5% horse blood); details: MB11967
Proteus vulgaris WO 91 = experiment: standard MIC test, Proteus vulgaris WO 91 (DST agar+5% horse blood); details: WO91
Enterobacter cloacae M 1 = experiment: standard MIC test, Enterobacter cloacae M 1 (DST agar+5% horse blood); details: M1
Staph. aureus Russell = experiment: standard MIC test, Staph. aureus Russell (DST agar+5% horse blood); details: Staphylococcus aureus
Citrobacter freundii E8 = experiment: standard MIC test, Citrobacter freundii E8 (DST agar+5% horse blood)
Proteus mirabilis 0977 = experiment: standard MIC test, Proteus mirabilis 0977 (DST agar+5% horse blood)
Ps aeruginosa A = experiment: standard MIC test, Ps aeruginosa A (DST agar+5% horse blood)
Staph. aureus Oxford = experiment: standard MIC test, Staph. aureus Oxford (DST agar+5% horse blood); details: Staphylococcus aureus
Proteus morganii I 580 = experiment: standard MIC test, Proteus morganii I 580 (DST agar+5% horse blood); details: Morganella morganii, I580
[1] = test system: Salmonella typhimurium CT10; experiment: standard MIC test, Salmonella typhimurium CT10 (DST agar+5% horse blood); details: Salmonella enterica

CCSC(C)[C@H]1C(=O)N2C(C(=O)[O-])=C(S/C=C/NC(C)=O)C[C@H]12.[Na+] (stereo partly drawn) [e52, Sodium (5R,6R)-3-[(E)-2-acetamidoethenylthio]-6-(-1-ethylthio-ethyl)-7-oxo-1-azabicyclo[3.2.0]hept2-ene-2-carboxylate]
MIC (E. coli 0111): 3.1 µg/mL | MIC (Proteus rettgeri WM 16): 6.25 µg/mL | MIC (Strep. faecalis I): 50 µg/mL | MIC (Klebsiella aerogenes A): 0.8 µg/mL | MIC (Staph. aureus 1517): 6.25 µg/mL | MIC (Serratia marcescens US20): 6.25 µg/mL | MIC (Shigella sonnei MB 11967): 3.1 µg/mL | MIC (Proteus vulgaris WO 91): 6.25 µg/mL | MIC (Enterobacter cloacae M 1): 12.5 µg/mL | MIC (Staph. aureus Russell): 0.8 µg/mL | MIC (Citrobacter freundii E8): 3.1 µg/mL | MIC (Proteus mirabilis 0977): 12.5 µg/mL | MIC (Ps aeruginosa A): 100 µg/mL | MIC (Staph. aureus Oxford): 0.8 µg/mL | MIC (Proteus morganii I 580): 12.5 µg/mL | MIC [1]: 6.25 µg/mL
